Consider 7 compounds from ChEMBL document CHEMBL1136560, “1,4-Diazepane-2-ones as novel inhibitors of LFA-1” (Bioorg Med Chem Lett, 2003).

The structures appear in SMILES notation.

The test deals with Intercellular adhesion molecule (ICAM-1), Integrin alpha-L/beta-2 (Homo sapiens, UniProt P05107+P20701). Briefly: Inhibition of LFA-1/ICAM-1 interaction in ELISA. The test is classed as protein-complex assay. Background: An ELISA detects its analyte on a solid surface through an enzyme-linked reagent.
Sequence of Intercellular adhesion molecule (ICAM-1), Integrin alpha-L/beta-2 (P20701 whole entry): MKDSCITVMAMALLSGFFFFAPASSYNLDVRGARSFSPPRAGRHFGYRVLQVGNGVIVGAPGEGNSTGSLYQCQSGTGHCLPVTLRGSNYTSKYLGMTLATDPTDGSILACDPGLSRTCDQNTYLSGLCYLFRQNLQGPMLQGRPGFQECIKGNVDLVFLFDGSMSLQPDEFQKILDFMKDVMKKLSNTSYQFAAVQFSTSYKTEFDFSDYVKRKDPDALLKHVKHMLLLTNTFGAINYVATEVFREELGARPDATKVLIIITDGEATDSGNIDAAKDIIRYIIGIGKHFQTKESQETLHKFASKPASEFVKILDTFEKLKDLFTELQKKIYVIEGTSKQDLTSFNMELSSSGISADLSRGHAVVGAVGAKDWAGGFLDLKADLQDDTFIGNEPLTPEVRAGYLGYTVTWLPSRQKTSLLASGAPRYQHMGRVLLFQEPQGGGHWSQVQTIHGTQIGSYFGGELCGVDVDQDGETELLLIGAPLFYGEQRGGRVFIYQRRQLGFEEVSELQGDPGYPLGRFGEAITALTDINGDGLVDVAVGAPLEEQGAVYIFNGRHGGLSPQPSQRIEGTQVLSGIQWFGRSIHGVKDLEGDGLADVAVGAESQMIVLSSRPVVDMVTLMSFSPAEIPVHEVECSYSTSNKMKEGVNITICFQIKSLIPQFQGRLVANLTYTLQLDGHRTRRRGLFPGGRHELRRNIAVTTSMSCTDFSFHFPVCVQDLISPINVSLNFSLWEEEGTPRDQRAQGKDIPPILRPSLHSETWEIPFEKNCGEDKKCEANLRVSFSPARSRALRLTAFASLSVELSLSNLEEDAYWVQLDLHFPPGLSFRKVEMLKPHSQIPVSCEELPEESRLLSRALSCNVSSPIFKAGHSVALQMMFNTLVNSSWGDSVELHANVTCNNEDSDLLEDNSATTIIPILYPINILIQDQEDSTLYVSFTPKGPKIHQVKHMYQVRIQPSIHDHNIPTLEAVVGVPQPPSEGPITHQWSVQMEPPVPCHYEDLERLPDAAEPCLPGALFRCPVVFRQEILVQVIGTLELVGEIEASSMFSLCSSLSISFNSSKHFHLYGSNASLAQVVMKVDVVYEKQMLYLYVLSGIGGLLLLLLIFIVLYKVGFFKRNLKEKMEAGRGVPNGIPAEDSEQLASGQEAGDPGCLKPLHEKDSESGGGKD
Sequence of Intercellular adhesion molecule (ICAM-1), Integrin alpha-L/beta-2 (P05362 whole entry, further chain): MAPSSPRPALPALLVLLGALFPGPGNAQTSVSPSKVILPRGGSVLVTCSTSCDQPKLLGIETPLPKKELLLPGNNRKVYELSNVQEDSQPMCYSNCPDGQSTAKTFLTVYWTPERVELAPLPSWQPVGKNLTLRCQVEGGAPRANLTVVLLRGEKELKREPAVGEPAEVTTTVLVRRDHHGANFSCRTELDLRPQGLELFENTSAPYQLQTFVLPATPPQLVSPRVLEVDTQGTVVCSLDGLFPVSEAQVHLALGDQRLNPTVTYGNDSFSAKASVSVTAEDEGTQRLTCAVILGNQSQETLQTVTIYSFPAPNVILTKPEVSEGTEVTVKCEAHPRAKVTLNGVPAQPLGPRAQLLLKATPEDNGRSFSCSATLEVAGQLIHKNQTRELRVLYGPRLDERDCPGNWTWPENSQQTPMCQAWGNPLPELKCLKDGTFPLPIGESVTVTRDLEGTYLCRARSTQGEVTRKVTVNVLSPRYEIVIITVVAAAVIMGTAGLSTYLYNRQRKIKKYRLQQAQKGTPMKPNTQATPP
Sequence of Intercellular adhesion molecule (ICAM-1), Integrin alpha-L/beta-2 (P05107 whole entry): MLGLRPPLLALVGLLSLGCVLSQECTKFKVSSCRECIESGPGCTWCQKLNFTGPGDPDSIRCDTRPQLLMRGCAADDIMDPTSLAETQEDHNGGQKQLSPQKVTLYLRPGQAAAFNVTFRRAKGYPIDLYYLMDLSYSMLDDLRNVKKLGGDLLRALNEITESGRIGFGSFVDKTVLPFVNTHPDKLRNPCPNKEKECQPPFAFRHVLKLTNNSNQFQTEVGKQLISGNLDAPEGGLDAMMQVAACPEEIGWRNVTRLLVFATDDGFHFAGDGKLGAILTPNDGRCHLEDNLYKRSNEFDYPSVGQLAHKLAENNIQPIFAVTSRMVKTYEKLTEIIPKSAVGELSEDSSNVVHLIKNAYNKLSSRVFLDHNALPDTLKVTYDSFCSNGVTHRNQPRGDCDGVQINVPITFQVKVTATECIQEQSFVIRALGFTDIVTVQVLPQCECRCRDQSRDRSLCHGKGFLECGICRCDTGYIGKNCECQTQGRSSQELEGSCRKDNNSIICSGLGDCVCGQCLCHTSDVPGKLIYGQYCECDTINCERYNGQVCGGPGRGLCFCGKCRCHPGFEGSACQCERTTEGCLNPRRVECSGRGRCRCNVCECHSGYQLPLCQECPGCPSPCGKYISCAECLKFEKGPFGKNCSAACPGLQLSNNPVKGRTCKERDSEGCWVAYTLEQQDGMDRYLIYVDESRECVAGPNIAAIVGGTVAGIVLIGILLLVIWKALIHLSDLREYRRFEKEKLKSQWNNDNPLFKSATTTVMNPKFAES
As a reminder, the IC50 is the concentration at which inhibition is half-maximal. Higher therefore signals weaker potency. `COC(=O)[C@H](Cc1ccc2ccccc2c1)N1CC[C@@H](C)N(C(=O)Cc2ccc3ncccc3c2)[C@@H](CC(C)C)C1=O` yielded an IC50 of 2.6 µM.
Take `CC(C)C[C@H]1C(=O)N([C@@H](Cc2ccc3ccccc3c2)C(N)=O)CC[C@@H](C)N1C(=O)Cc1ccccc1`: the IC50 came out at 0.75 µM.
The compound `CC(C)C[C@H]1C(=O)N([C@@H](Cc2ccc3ccccc3c2)C(=O)O)CC[C@@H](C)N1C(=O)Cc1ccc2ccccc2c1` registered an IC50 above 20 µM.
As for `CC(C)C[C@H]1C(=O)N([C@@H](Cc2ccc3ccccc3c2)C(N)=O)CC[C@@H](C)N1C(=O)Cc1ccc2ccccc2c1`, the figure is 2 µM; as for `CC(C)C[C@H]1C(=O)N([C@@H](Cc2ccc3ccccc3c2)C(N)=O)CC[C@@H](C)N1C(=O)Cc1ccc(Br)cc1`, 1.3 µM.
With `CC(C)C[C@H]1C(=O)N([C@H](C(N)=O)c2ccc3ccccc3c2)CCC(C)N1C(=O)Cc1ccc2ccccc2c1` (some centres not stated) the figure was above 20 µM; with `CC(C)C[C@H]1C(=O)N([C@@H](Cc2ccc3ccccc3c2)C(N)=O)CC[C@@H](C)N1C(=O)Cc1ccncc1`, 0.97 µM.
